Results taken from US9399649B2, “Compounds for treating spinal muscular atrophy” (PTC Therapeutics Inc., priority 2012, dated 2016).

Assays:
[1] = test system: full length and Δ7 SMN2 mRNA; assay: Endogenous SMN2 mRNA end-point semi-quantitative RT-PCR splicing assay in animal tissues; assay type: in vivo; conditions: C/C-allele SMA mice, brain and muscle, oral BID for 10 days, FIG. 7
Description: The endpoint reverse transcription-PCR (RT-PCR) splicing assay is used to quantify the levels of the full length and Δ7 SMN2 mRNA in tissues from mice treated with test compound.
C/C-allele SMA mice are treated by oral gavage BID for 10 days with test compounds in 0.5% HPMC and 0.1% Tween-80. Tissue samples are collected and snap frozen for RNA purification.
Tissue samples (20-40 mg) are homogenized in QIAzol Lysis Reagent for 2 minutes at 20 Hz in the TissueLyser II using one stainless steel bead. After addition of chloroform, the homogenate is separated into aqueous and organic phases by centrifugation. RNA partitioned to the upper, aqueous phase is extracted and ethanol is added to provide appropriate binding conditions. The sample is then applied to the RNeasy spin column from the RNeasy Mini Kit, where total RNA binds to the membrane. The RNA is eluted in RNase-free water then stored at −20° C.
SMN2 spliced products are identified using the following amplification primers in Table 8. These primers hybridize to a nucleotide sequence in exon 6 (SMN Forward D, SEQ ID NO. 13) (nucleotide 22 to nucleotide 46) and exon 8 (SMN Reverse C, SEQ ID NO. 12), common to human SMN1 and SMN2 mRNA. […]

Smn protein = Smn protein in tissues of neonatal Δ7 SMA mice; assay type: in vivo; conditions: neonatal SMA Δ7 homozygous knockout mice, IP QD for 7 days (PND 3 to PND 9), brain, spinal cord, muscle, FIG. 12
Description: The tissue samples in Safe-Lock tubes are weighed and the volume of RIPA buffer containing the protease inhibitor cocktail is added based on the weight to volume ratios for each type of tissue: Brain (50 mgmL), Muscle (50 mgmL) and Spinal Cord (25 mgmL).
Tissues are homogenized using the TissueLyzer by bead milling. 5 mm stainless steel beads are added to the sample and shaken vigorously for 5 minutes at 30 Hz in the TissueLyzer. The samples are then centrifuged for 20 minutes at 14,000×g in a microcentrifuge and the homogenates transferred to the PCR plate. The homogenates are diluted in RIPA buffer to approximately 1 mgmL for HTRF and approximately 0.5 mgmL for total protein measurement using the BCA protein assay. […] Fluorescence for each well of the plate at 665 nm and 620 nm is measured on an EnVision multilabel plate reader (Perkin-Elmer). The total protein in the tissue homogenate is measured using the BCA assay according to the manufacturer's protocol.
The normalized fluorescence signal is calculated for each sample, Blank and vehicle control well by dividing the signal at 665 nm by the signal at 620 nm. Normalizing the signal accounts for possible fluorescence quenching due to the matrix effect of the tissue homogenate. […] The ΔF value for each tissue sample well is divided by the total protein quantity (determined using the BCA assay) for that tissue sample. […]

Cc1cn2cc(-c3cc4ccc(N5CCN(C)CC5)cc4c(=O)o3)nc2c(C)n1 [Cpd 65, 3-(6,8-dimethylimidazo[1,2-a]pyrazin-2-yl)-7-(4-methylpiperazin-1-yl)-1H-isochromen-1-one]
SMN2 FL mRNA in tissues (gel band) [1]: progressively more SMN2 FL mRNA | SMN2 Δ7 mRNA in tissues (gel band) [1]: less SMN2 Δ7 mRNA | total protein normalized Smn level in tissues (Smn protein): dose dependently increased
